These are literature values, as cited in patent publication EP2090292A1, “Means and methods for controlling commensales” (B.R.A.I.N. Biotechnology Research and Information Network AG, priority 2008, dated 2009).

SMILES strings stand for the structures. Entries after “also recorded” stand apart in the source; their conditions may differ.

The data set concerns Gram-positive and Gram-negative bacteria. Conditions: prior art, Torres et al. (1998); biofilm not assayed.

For the compound `CC1OC(=O)C(C2OC2C)=CC1O` (stereo not shown) [aspyrone, 6-Dihydro-5-hydroxy-6-methyl-3-(3-methyloxiranyl)-2H-pyran-2-one], the “inhibitory activity against Gram-positive and Gram-negative bacteria” value is given as “weak inhibitory activity; also recorded: weak to negligible activity”.
